Reference: US12459951B2, “Compounds that interact with RAS superfamily proteins for treatment of cancers, inflammatory diseases, rasopathies, and fibrotic disease” (SHY Therapeutics, LLC, priority 2022, dated 2025)

How the values were obtained:
[1] = tested on: MAPK p38 phosphorylation; test: MAPK p38 Activation Assay (western blot), Panc-1; format: cell-based, human; conditions: at 10 μM, Panc-1 pancreatic cancer cell line; starred symbols = activation
Method in brief: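 Panc-1 cells (KRas G12D) were treated with compound for 6 h at 37 °C, at 10 μM or as serial dilutions for IC50, with 0.3% DMSO. Method 1 used overnight serum-starved cells (0.5% FBS) stimulated with 1.5 ng/ml EGF for 15 min; Method 2 used unstimulated cells in 10% FBS. Phospho-p38 (Thr180/Tyr182) was detected by western blot.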

[2] = tested on: JNK phosphorylation; test: JNK Activation Assay (western blot), Panc-1; format: cell-based, human; conditions: at 10 μM, Panc-1 pancreatic cancer cell line; starred symbols = activation
Method: Protocol for JNK Activation Assay
This assay is referred to as the “JNK Activation Assay” throughout this application.
Cell lines: Human tumor-derived pancreatic cancer cell line Panc-1 (expressing KRas […] mutant) was purchased from American Type Culture Collection and grown in complete DMEM-High Glucose medium, supplemented with penicillin (100 U/mL), streptomycin (100 μg/mL), and 10% heat-inactivated FBS at 37° C. in a humidified incubator with 5% CO2.
Method 1: Cells were plated at 350000 cells/well density in a 12-well plate, allowed 3 hours to adhere to the plate, then starved in the appropriate medium in the presence of 0.5% FBS overnight. The small molecules to be tested were added to the cells in the final concentration of 10 μM in the presence of 0.3% DMSO for 6 hours incubation at 37° C. For IC50 value determination, serial dilutions of compounds were added to cells under the same conditions. Next, cells were stimulated with 1.5 ng/ml EGF for 15 minutes then cells were lysed with lysis buffer containing 1% Triton X-100, EDTA, and Halt™ Protease & Phosphatase Inhibitor Cocktail (Thermo Scientific). Protein concentration was assessed by BCA protein assay (Thermo Scientific). Phosphorylation level of JNK was determined by western blot.
Method 2: Cells were plated at 350000 cells/well density in a 12-well plate in the presence of 10% FBS. The next day small molecules to be tested were added to the cells in the final concentration of 10 μM in the presence of 0.3% DMSO for 6 hours incubation at 37° C. For IC50 value determination, serial dilutions of compounds were added to cells under the same conditions. Next, cells were lysed with lysis buffer containing 1% Triton X-100, EDTA, and Halt™ Protease & Phosphatase Inhibitor Cocktail (Thermo Scientific). Protein concentration was assessed by BCA protein assay (Thermo Scientific). Phosphorylation level of JNK was determined by western blot.
Western blot protocol: Equal amounts of protein (15-50 μg) were separated by SDS-PAGE and transferred to nitrocellulose membranes (Invitrogen by Thermo Fisher Scientific). The membrane was stained with Ponceau S Stain (Boston BioProducts) to verify uniform protein loading. Membranes were blocked with 10% milk and phosphorylation levels of JNK were assessed by incubating overnight at 4° C. with the antibody Phospho-SAPK/JNK (Thr183/Tyr185), from Cell Signaling Technology. Then the membranes were incubated with HRP-conjugated secondary antibody (Jackson Immunoresearch, West Grove, PA). Bands were incubated in Amersham ECL Prime Western Blotting Detection Reagent (GE Healthcare) and visualized using the ChemiDoc MP imaging system (Bio-Rad).

[3] = target: T1, cdc42 (Homo sapiens, UniProt P60953); test: Cdc42 GTP Binding Domain Inhibition Assay; conditions: read-out: Cdc42: % inh.
T1 construct: made in house
Method: Protocol for Cdc42 and Rheb GTP Binding Domain Inhibition Assay
The following method was developed as specific assay for cdc42 and Rheb proteins.
• 25 mM Tris-HCl, pH 7.4 • 27 mM KCl • 137 mM NaCl • 1 mM MgCl2 • 1 mM DTT Buffer-II: • 50 mM Tris-HCl, pH 7.0 • 1 mM MgCl2 • 1 mM DTT
The small GTPases proteins cdc42 and Rheb were expressed as His-tagged proteins. For the assay, the cdc42 and Rheb purified small GTPases proteins were diluted in Buffer-I or Buffer-II to a final concentration of 10-30 μg/mL. 200 μL of each diluted protein was added to a nickel-coated 96-well plate and incubated overnight at […]. Then the protein solution was discarded and 200 μL of Buffer-I or Buffer-II was added to each well in the presence of 1% DMSO. Compounds to be tested were added to the protein-coated wells at final concentration of 20 μM, and incubated for 3 hours at room temperature with and without 10-30 μg/mL of Sos added to the final hour of the incubation. When performing IC50 measurements a serial dilution of all tested concentrations was added. Then Cy3-GTP or Cy5-GTP was added to each well to a final concentration of 100 nM. The labeled GTP was incubated for 45 minutes at room temperature. Following GTP incubation, wells were washed 3× in Buffer-I or Buffer-II and 200 μL of Buffer-I or Buffer-II was added to each well. Following washes, the amount of bound labeled-GTP was measured using a SpectraMax M3 (Molecular Devices).

T1 sequence (P60953 whole entry, the tested form may be a part): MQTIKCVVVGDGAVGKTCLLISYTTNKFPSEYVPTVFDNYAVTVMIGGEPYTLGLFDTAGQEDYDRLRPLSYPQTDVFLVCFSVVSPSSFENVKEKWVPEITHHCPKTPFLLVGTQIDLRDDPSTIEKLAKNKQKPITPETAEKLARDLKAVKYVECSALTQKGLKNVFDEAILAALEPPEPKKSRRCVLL

Question: `CO[C@H]1CC[C@@H](Nc2nc(-c3ccccn3)nn3cc(-c4ccn(C(C)C)n4)c(-c4ccccc4)c23)C1` (racemic) [Compound 24, rac 6-(1-Isopropyl-1H-pyrazol-3-yl)-N-((1R,3S)-3-methoxycyclopentyl)-5-phenyl-2-(pyridin-2-yl)pyrrolo[2,1-f][1,2,4]triazin-4-amine] was tested. Which “% inh of MAPK p38 in Panc-1” value [1] did it give?
Answer: Its value is “H* (H* ≥ 100% activation)”.

Question: What about the “% inh of JNK in Panc-1” value [2] of the same molecule?
Answer: The value was “H* (H* ≥ 100% activation)”.

Question: With `COCC1CCN(c2nc(-c3ccccn3)nn3cc(-c4ccn(C(C)C)n4)c(-c4ccccc4)c23)C1` (racemic) [Compound 25, rac 6-(1-Isopropyl-1H-pyrazol-3-yl)-4-(3-(methoxymethyl)pyrrolidin-1-yl)-5-phenyl-2-(pyridin-2-yl)pyrrolo[2,1-f][1,2,4]triazine] as the molecule, how does the “% inh of MAPK p38 in Panc-1” value [1] read?
Answer: The value was “H* (H* ≥ 100% activation)”.

Question: What about the “% inh of JNK in Panc-1” value [2] of the same molecule?
Answer: Its value is “H* (H* ≥ 100% activation)”.

Question: Which results are given for `COC[C@@H]1CC[C@@H]1CNc1nc(-c2ccccn2)nn2cc(-c3ccn(C(C)C)n3)c(-c3ccccc3)c12` (racemic) [Compound 26, rac 6-(1-Isopropyl-1H-pyrazol-3-yl)-N-(((1S,2R)-2-(methoxymethyl)cyclobutyl)methyl)-5-phenyl-2-(pyridin-2-yl)pyrrolo[2,1-f][1,2,4]triazin-4-amine]?
Answer: % inh of MAPK p38 in Panc-1 [1]: H* (H* ≥ 100% activation); % inh of JNK in Panc-1 [2]: H* (H* ≥ 100% activation)

Question: What does the source list for `COC1CCCN(c2nc(-c3ccccn3)nn3cc(-c4ccn(C(C)C)n4)c(-c4ccccc4)c23)C1` (racemic) [Compound 27, rac 6-(1-Isopropyl-1H-pyrazol-3-yl)-4-(3-methoxypiperidin-1-yl)-5-phenyl-2-(pyridin-2-yl)pyrrolo[2,1-f][1,2,4]triazine]?
Answer: % inh of MAPK p38 in Panc-1 [1]: H* (H* ≥ 100% activation); % inh of JNK in Panc-1 [2]: H* (H* ≥ 100% activation)

Question: With `COc1cccc(-c2cn3nc(-c4nccn4C)nc(N[C@@H]4CC[C@H](OC)C4)c3c2-c2ccccc2)c1Cl` (racemic) [Compound 33, rac 6-(2-Chloro-3-methoxyphenyl)-N-((1R,3S)-3-methoxycyclopentyl)-2-(1-methyl-1H-imidazol-2-yl)-5-phenylpyrrolo[2,1-f][1,2,4]triazin-4-amine] as the molecule, how does the “% inh of MAPK p38 in Panc-1” value [1] read?
Answer: Its value is “H (H = 100% inhibition)”.

Question: And the “% inh of JNK in Panc-1” value [2]?
Answer: Its value is “G (G = 75-99% inhibition)”.

Question: Which “% inh of MAPK p38 in Panc-1” value [1] does the source give for `CO[C@H]1CC[C@@H](Nc2nc(-c3nccn3C)nn3cc(-c4ccn(C(C)C)n4)c(C(C)C)c23)C1` (racemic) [Compound 36, rac 5-Isopropyl-6-(1-isopropyl-1H-pyrazol-3-yl)-N-((1R,3S)-3-methoxycyclopentyl)-2-(1-methyl-1H-imidazol-2-yl)pyrrolo[2,1-f][1,2,4]triazin-4-amine] here?
Answer: The value was “H* (H* ≥ 100% activation)”.

Question: What about the “% inh of JNK in Panc-1” value [2] of the same molecule?
Answer: Its value is “H* (H* ≥ 100% activation)”.

Question: Which “% inh of MAPK p38 in Panc-1” value [1] does the source give for `COc1cccc(Nc2nc(-c3nccn3C)nn3cc(-c4ccn(C(C)C)n4)c(-c4ccccc4)c23)n1` [Compound 23, 6-(1-Isopropyl-1H-pyrazol-3-yl)-N-(6-methoxypyridin-2-yl)-2-(1-methyl-1H-imidazol-2-yl)-5-phenylpyrrolo[2,1-f][1,2,4]triazin-4-amine] here?
Answer: The value was “H* (H* ≥ 100% activation)”.

Question: And the “% inh of JNK in Panc-1” value [2]?
Answer: Its value is “H* (H* ≥ 100% activation)”.

Question: `COc1cccc(-c2cn3nc(-c4nccn4C)nc(O)c3c2-c2ccccc2)c1Cl` [Compound 28, 6-(2-Chloro-3-methoxyphenyl)-2-(1-methyl-1H-imidazol-2-yl)-5-phenylpyrrolo[2,1-f][1,2,4]triazin-4-ol] was tested. Which “% inh of MAPK p38 in Panc-1” value [1] did it give?
Answer: Its value is “H* (H* ≥ 100% activation)”.

Question: What about the “% inh of JNK in Panc-1” value [2] of the same molecule?
Answer: Its value is “H* (H* ≥ 100% activation)”.

Question: How did the “% inh of MAPK p38 in Panc-1” value [1] turn out when `COCCNc1nc(-c2nccn2C)nn2cc(-c3cccc(OC)c3Cl)c(-c3ccccc3)c12` [Compound 29, 6-(2-Chloro-3-methoxyphenyl)-N-(2-methoxyethyl)-2-(1-methyl-1H-imidazol-2-yl)-5-phenylpyrrolo[2,1-f][1,2,4]triazin-4-amine] was run?
Answer: Its value is “H (H = 100% inhibition)”.

Question: What about the “% inh of JNK in Panc-1” value [2] of the same molecule?
Answer: Its value is “H (H = 100% inhibition)”.

Question: With `COCCCNc1nc(-c2nccn2C)nn2cc(-c3cccc(OC)c3Cl)c(-c3ccccc3)c12` [Compound 30, 6-(2-Chloro-3-methoxyphenyl)-N-(3-methoxypropyl)-2-(1-methyl-1H-imidazol-2-yl)-5-phenylpyrrolo[2,1-f][1,2,4]triazin-4-amine] as the molecule, how does the “% inh of MAPK p38 in Panc-1” value [1] read?
Answer: Its value is “F (F = 31-74% inhibition)”.

Question: And the “% inh of JNK in Panc-1” value [2]?
Answer: The value was “F (F = 31-74% inhibition)”.

Question: `COc1cccc(-c2cn3nc(-c4nccn4C)nc(N[C@H]4C[C@@H](OC)C4)c3c2-c2ccccc2)c1Cl` [Compound 31, 6-(2-Chloro-3-methoxyphenyl)-N-((1s,3s)-3-methoxycyclobutyl)-2-(1-methyl-1H-imidazol-2-yl)-5-phenylpyrrolo[2,1-f][1,2,4]triazin-4-amine] was tested. Which “% inh of MAPK p38 in Panc-1” value [1] did it give?
Answer: The value was “H* (H* ≥ 100% activation)”.

Question: What about the “% inh of JNK in Panc-1” value [2] of the same molecule?
Answer: The value was “H* (H* ≥ 100% activation)”.

Question: For `COCCNc1nc(-c2nccn2C)nn2cc(-c3ccn(C(C)C)n3)c(C(C)C)c12` [Compound 35, 5-Isopropyl-6-(1-isopropyl-1H-pyrazol-3-yl)-N-(2-methoxyethyl)-2-(1-methyl-1H-imidazol-2-yl)pyrrolo[2,1-f][1,2,4]triazin-4-amine], which “% inh of MAPK p38 in Panc-1” value [1] is on record?
Answer: Its value is “H* (H* ≥ 100% activation)”.

Question: What about the “% inh of JNK in Panc-1” value [2] of the same molecule?
Answer: Its value is “H* (H* ≥ 100% activation)”.

Question: How did the inhibition at 20 µM [3] turn out when `COc1cc(Nc2nc(-c3nccn3C)nn3cc(-c4cccnc4)c(C)c23)ncn1` [Compound 48, N-(6-Methoxypyrimidin-4-yl)-5-methyl-2-(1-methyl-1H-imidazol-2-yl)-6-(pyridin-3-yl)pyrrolo[2,1-f][1,2,4]triazin-4-amine] was run?
Answer: Its inhibition at 20 µM is 50 to 75%.

Question: Which inhibition at 20 µM [3] does the source give for `COc1cc(Nc2nc(-c3nccn3C)nn3cc(-c4ccncc4)c(C)c23)ncn1` [Compound 49, N-(6-Methoxypyrimidin-4-yl)-5-methyl-2-(1-methyl-1H-imidazol-2-yl)-6-(pyridin-4-yl)pyrrolo[2,1-f][1,2,4]triazin-4-amine] here?
Answer: The inhibition at 20 µM was 1 to 25%.

Question: How did the inhibition at 20 µM [3] turn out when `COc1cc(-c2cn3nc(-c4nccn4C)nc(Nc4cc(OC)ncn4)c3c2C)ccn1` [Compound 50, 6-(2-Methoxypyridin-4-yl)-N-(6-methoxypyrimidin-4-yl)-5-methyl-2-(1-methyl-1H-imidazol-2-yl)pyrrolo[2,1-f][1,2,4]triazin-4-amine] was run?
Answer: Its inhibition at 20 µM is 26 to 49%.

Question: `Cc1c(-c2ccn(C(C)C)n2)cn2nc(-c3nccn3C)nc(Nc3cc(C4CC4)n[nH]3)c12` [Compound 68, N-(3-Cyclopropyl-1H-pyrazol-5-yl)-6-(1-isopropyl-1H-pyrazol-3-yl)-5-methyl-2-(1-methyl-1H-imidazol-2-yl)pyrrolo[2,1-f][1,2,4]triazin-4-amine] was tested. Which inhibition at 20 µM [3] did it give?
Answer: Its inhibition at 20 µM is 76 to 100%.

Question: `COc1cncnc1Nc1nc(-c2nccn2C)nn2cc(-c3ccn(C(C)C)n3)c(C)c12` [Compound 73, 6-(1-Isopropyl-1H-pyrazol-3-yl)-N-(5-methoxypyrimidin-4-yl)-5-methyl-2-(1-methyl-1H-imidazol-2-yl)pyrrolo[2,1-f][1,2,4]triazin-4-amine] was tested. Which inhibition at 20 µM [3] did it give?
Answer: Its inhibition at 20 µM is 50 to 75%.
